How the values were obtained:
[1] = biological target: T1, N neuronal α4β2 (h) (agonist radioligand) (Homo sapiens, UniProt P17787+P43681); assay: biochemical; set-up: CEREP off-target panel, radioligand binding, inhibition of control specific binding; details: read-out: % Inhibition of Control Specific Binding, Mean
T1 construct: gene CHRNB2; agonist radioligand

[2] = biological target: T2, H1(h) (antagonist radioligand) (Homo sapiens, UniProt P35367); assay: biochemical; set-up: CEREP off-target panel, radioligand binding, inhibition of control specific binding; details: read-out: % Inhibition of Control Specific Binding, Mean
T2 construct: gene HRH1; antagonist radioligand

[3] = biological target: T3, CB1(h) (agonist radioligand) (Homo sapiens, UniProt P21554); assay: biochemical; set-up: CEREP off-target panel, radioligand binding, inhibition of control specific binding; details: read-out: % Inhibition of Control Specific Binding, Mean
T3 construct: gene CNR1; agonist radioligand

[4] = biological target: T4, α1A(h) (antagonist radioligand) (Homo sapiens, UniProt P35348); assay: biochemical; set-up: CEREP off-target panel, radioligand binding, inhibition of control specific binding; details: read-out: % Inhibition of Control Specific Binding, Mean
T4 construct: gene ADRA1A; antagonist radioligand

[5] = biological target: T5, CCK1 (CCKA) (h) (agonist radioligand) (Homo sapiens, UniProt P32238); assay: biochemical; set-up: CEREP off-target panel, radioligand binding, inhibition of control specific binding; details: read-out: % Inhibition of Control Specific Binding, Mean
T5 construct: gene CCKAR; agonist radioligand

[6] = biological target: T6, μ (MOP) (h) (agonist radioligand) (Homo sapiens, UniProt P35372); assay: biochemical; set-up: CEREP off-target panel, radioligand binding, inhibition of control specific binding; details: read-out: % Inhibition of Control Specific Binding, Mean
T6 construct: gene OPRM1; agonist radioligand
T6 sequence (P35372 whole entry): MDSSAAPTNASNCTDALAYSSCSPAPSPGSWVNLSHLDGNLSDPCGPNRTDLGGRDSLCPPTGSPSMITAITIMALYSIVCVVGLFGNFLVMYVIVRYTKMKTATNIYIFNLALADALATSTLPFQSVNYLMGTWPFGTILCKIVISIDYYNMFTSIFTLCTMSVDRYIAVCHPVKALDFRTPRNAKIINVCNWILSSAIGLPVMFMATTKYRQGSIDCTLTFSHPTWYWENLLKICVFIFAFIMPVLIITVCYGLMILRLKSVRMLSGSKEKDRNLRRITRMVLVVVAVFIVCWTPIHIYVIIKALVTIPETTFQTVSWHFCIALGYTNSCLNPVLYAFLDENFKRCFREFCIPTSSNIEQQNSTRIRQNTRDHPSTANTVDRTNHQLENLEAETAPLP

[7] = biological target: T7, CB2(h) (agonist radioligand) (Homo sapiens, UniProt P34972); assay: biochemical; set-up: CEREP off-target panel, radioligand binding, inhibition of control specific binding; details: read-out: % Inhibition of Control Specific Binding, Mean
T7 construct: gene CNR2; agonist radioligand
T7 sequence (P34972 whole entry): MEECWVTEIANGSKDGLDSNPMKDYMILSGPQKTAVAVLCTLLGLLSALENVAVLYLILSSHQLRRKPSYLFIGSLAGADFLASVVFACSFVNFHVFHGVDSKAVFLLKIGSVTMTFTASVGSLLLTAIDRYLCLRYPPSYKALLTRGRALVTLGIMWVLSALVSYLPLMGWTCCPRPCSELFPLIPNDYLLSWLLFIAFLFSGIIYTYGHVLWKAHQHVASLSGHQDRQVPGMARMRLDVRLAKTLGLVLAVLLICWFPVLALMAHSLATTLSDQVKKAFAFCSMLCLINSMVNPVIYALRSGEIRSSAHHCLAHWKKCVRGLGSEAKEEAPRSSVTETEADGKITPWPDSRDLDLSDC

[8] = biological target: T8, M3(h) (antagonist radioligand) (Homo sapiens, UniProt P20309); assay: biochemical; set-up: CEREP off-target panel, radioligand binding, inhibition of control specific binding; details: read-out: % Inhibition of Control Specific Binding, Mean
T8 construct: gene CHRM3; antagonist radioligand
T8 sequence (P20309 whole entry): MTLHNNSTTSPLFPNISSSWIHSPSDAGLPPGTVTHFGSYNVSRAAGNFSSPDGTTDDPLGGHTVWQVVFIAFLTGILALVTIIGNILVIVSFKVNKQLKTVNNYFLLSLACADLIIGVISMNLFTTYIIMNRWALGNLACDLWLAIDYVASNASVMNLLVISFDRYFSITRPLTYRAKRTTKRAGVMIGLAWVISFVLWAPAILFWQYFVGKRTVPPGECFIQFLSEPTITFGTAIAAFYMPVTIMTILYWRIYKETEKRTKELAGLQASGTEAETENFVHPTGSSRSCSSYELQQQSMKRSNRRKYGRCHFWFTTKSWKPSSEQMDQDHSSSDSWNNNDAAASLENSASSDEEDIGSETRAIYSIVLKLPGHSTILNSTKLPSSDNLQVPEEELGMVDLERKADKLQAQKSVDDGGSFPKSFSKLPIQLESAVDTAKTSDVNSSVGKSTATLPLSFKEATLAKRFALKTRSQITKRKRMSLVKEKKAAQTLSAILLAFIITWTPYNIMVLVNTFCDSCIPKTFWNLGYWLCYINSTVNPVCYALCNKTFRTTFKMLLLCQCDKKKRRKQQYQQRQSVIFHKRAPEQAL

[9] = biological target: T9, M1(h) (antagonist radioligand) (Homo sapiens, UniProt P11229); assay: biochemical; set-up: CEREP off-target panel, radioligand binding, inhibition of control specific binding; details: read-out: % Inhibition of Control Specific Binding, Mean
T9 construct: gene CHRM1; antagonist radioligand
T9 sequence (P11229 whole entry): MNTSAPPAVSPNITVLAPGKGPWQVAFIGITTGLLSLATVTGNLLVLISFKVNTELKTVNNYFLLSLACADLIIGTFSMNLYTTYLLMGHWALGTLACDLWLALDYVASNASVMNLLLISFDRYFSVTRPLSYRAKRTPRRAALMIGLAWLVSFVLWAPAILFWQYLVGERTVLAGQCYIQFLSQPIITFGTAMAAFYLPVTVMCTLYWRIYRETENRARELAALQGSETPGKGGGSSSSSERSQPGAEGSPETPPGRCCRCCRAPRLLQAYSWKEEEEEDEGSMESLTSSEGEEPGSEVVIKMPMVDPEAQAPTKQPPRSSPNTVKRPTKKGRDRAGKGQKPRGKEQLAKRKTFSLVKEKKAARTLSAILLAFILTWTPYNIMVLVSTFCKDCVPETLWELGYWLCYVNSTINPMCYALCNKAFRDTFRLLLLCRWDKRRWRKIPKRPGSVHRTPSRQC

[10] = biological target: T10, kappa (h) (KOP) (agonist radioligand) (Homo sapiens, UniProt P41145); assay: biochemical; set-up: CEREP off-target panel, radioligand binding, inhibition of control specific binding; details: read-out: % Inhibition of Control Specific Binding, Mean
T10 construct: gene OPRK1; agonist radioligand
T10 sequence (P41145 whole entry): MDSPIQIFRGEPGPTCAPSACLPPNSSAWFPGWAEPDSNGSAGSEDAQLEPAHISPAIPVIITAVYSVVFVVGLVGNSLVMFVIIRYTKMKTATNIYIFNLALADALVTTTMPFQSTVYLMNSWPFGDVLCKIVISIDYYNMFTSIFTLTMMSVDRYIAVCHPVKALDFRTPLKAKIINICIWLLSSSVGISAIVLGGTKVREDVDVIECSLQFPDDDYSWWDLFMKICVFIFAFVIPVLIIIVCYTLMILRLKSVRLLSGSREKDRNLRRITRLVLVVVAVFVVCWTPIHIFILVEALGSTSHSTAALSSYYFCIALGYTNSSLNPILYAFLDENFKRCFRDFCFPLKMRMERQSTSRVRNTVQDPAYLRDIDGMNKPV

[11] = biological target: T11, 5-HT1B (h) (antagonist radioligand) (Homo sapiens, UniProt P28222); assay: biochemical; set-up: CEREP off-target panel, radioligand binding, inhibition of control specific binding; details: read-out: % Inhibition of Control Specific Binding, Mean
T11 construct: gene HTR1B; antagonist radioligand
T11 sequence (P28222 whole entry): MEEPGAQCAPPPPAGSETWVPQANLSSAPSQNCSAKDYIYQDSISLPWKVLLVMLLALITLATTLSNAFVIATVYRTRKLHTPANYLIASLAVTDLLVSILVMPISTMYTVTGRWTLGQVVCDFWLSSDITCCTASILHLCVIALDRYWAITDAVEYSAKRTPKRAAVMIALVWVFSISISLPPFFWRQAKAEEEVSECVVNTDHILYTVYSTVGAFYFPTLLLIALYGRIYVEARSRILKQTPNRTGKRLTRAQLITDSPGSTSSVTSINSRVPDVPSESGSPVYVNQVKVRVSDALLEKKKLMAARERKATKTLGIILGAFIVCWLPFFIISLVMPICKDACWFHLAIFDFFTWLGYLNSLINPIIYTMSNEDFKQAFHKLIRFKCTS

[12] = biological target: T12, V1a(h) (agonist radioligand) (Homo sapiens, UniProt P37288); assay: biochemical; set-up: CEREP off-target panel, radioligand binding, inhibition of control specific binding; details: read-out: % Inhibition of Control Specific Binding, Mean
T12 construct: gene AVPR1A; agonist radioligand

[13] = biological target: T13, AR(h) (agonist radioligand) (Homo sapiens, UniProt P10275); assay: biochemical; set-up: CEREP off-target panel, radioligand binding, inhibition of control specific binding; details: read-out: % Inhibition of Control Specific Binding, Mean
T13 construct: agonist radioligand

[14] = biological target: T14, δ (DOP) (h) (agonist radioligand) (Homo sapiens, UniProt P41143); assay: biochemical; set-up: CEREP off-target panel, radioligand binding, inhibition of control specific binding; details: read-out: % Inhibition of Control Specific Binding, Mean
T14 construct: gene OPRD1; agonist radioligand
T14 sequence (P41143 whole entry): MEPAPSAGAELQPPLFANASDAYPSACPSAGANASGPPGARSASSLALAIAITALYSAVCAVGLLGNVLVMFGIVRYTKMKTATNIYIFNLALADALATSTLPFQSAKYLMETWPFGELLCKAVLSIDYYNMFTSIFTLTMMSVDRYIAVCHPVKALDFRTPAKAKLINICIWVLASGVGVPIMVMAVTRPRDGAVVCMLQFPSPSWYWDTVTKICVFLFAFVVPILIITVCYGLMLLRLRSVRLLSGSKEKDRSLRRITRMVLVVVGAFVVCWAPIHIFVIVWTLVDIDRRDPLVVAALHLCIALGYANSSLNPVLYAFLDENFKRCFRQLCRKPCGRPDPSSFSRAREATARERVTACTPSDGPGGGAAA

[15] = biological target: T15, D2S(h) (agonist radioligand) (Homo sapiens, UniProt P14416); assay: biochemical; set-up: CEREP off-target panel, radioligand binding, inhibition of control specific binding; details: read-out: % Inhibition of Control Specific Binding, Mean
T15 construct: gene DRD2; short isoform (D2S), agonist radioligand
T15 sequence (P14416 whole entry, canonical isoform): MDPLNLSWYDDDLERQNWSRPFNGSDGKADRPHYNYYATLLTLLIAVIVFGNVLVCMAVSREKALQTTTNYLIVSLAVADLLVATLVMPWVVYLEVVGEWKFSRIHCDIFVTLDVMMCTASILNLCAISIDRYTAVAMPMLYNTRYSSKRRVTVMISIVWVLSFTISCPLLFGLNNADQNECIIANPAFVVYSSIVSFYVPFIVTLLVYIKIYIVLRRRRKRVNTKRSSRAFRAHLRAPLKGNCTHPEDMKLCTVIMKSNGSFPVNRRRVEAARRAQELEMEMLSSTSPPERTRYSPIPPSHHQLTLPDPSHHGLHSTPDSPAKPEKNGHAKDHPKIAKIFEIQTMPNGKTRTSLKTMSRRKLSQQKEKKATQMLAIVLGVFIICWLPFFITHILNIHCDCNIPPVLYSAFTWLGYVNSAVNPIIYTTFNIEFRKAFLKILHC

[16] = biological target: T16, 5-HT1A(h) (agonist radioligand) (Homo sapiens, UniProt P08908); assay: biochemical; set-up: CEREP off-target panel, radioligand binding, inhibition of control specific binding; details: read-out: % Inhibition of Control Specific Binding, Mean
T16 construct: gene HTR1A; agonist radioligand
T16 sequence (P08908 whole entry): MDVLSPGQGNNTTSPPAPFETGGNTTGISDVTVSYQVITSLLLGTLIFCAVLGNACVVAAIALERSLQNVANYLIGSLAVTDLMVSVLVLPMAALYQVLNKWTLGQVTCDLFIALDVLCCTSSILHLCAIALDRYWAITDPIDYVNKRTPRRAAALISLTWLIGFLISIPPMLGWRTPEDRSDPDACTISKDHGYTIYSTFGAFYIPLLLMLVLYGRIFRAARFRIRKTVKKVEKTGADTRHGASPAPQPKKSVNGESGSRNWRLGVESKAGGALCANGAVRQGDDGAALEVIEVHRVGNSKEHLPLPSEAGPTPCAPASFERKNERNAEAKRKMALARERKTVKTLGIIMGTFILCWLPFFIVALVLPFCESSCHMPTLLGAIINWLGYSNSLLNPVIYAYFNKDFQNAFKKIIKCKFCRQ

[17] = biological target: T17, H2(h) (antagonist radioligand) (Homo sapiens, UniProt P25021); assay: biochemical; set-up: CEREP off-target panel, radioligand binding, inhibition of control specific binding; details: read-out: % Inhibition of Control Specific Binding, Mean
T17 construct: gene HRH2; antagonist radioligand

[18] = biological target: T18, 5-HT2B(h) (agonist radioligand) (Homo sapiens, UniProt P41595); assay: biochemical; set-up: CEREP off-target panel, radioligand binding, inhibition of control specific binding; details: read-out: % Inhibition of Control Specific Binding, Mean
T18 construct: gene HTR2B; agonist radioligand
T18 sequence (P41595 whole entry): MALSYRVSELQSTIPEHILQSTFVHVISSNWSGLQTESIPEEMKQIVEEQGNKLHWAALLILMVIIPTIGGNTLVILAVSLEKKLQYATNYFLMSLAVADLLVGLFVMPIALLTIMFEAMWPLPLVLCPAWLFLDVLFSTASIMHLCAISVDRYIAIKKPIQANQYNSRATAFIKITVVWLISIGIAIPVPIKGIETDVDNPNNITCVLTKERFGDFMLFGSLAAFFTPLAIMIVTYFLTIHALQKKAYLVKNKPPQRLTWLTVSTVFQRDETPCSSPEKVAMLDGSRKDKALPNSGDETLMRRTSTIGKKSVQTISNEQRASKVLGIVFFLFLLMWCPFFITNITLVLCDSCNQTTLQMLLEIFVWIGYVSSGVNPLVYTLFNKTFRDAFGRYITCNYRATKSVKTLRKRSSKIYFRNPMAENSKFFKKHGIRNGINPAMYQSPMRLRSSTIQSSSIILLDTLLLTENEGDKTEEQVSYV

[19] = biological target: T19, 5-HT3(h) (antagonist radioligand) (Homo sapiens, UniProt P46098); assay: biochemical; set-up: CEREP off-target panel, radioligand binding, inhibition of control specific binding; details: read-out: % Inhibition of Control Specific Binding, Mean
T19 construct: gene HTR3A; antagonist radioligand

[20] = biological target: T20, M2 (h) (antagonist radioligand) (Homo sapiens, UniProt P08172); assay: biochemical; set-up: CEREP off-target panel, radioligand binding, inhibition of control specific binding; details: read-out: % Inhibition of Control Specific Binding, Mean
T20 construct: gene CHRM2; antagonist radioligand

[21] = biological target: T21, ETA(h) (agonist radioligand) (Homo sapiens, UniProt P25101); assay: biochemical; set-up: CEREP off-target panel, radioligand binding, inhibition of control specific binding; details: read-out: % Inhibition of Control Specific Binding, Mean
T21 construct: gene EDNRA; agonist radioligand

[22] = biological target: T22, β1(h) (agonist radioligand) (Homo sapiens, UniProt P08588); assay: biochemical; set-up: CEREP off-target panel, radioligand binding, inhibition of control specific binding; details: read-out: % Inhibition of Control Specific Binding, Mean
T22 construct: gene ADRB1; agonist radioligand

[23] = biological target: T23, MAGL (monoacylglycerol lipase) (Homo sapiens, UniProt Q99685, K36A/L169S/L176S); assay: X-ray co-crystal structure (crystal soaking), […] Å; assay type: binding
T23 construct: gene MGLL; tag-free hMAGL (K36A, L169S, L176S), His6-TEV tag cleaved
T23 sequence (Q99685 whole entry K36A/L169S/L176S): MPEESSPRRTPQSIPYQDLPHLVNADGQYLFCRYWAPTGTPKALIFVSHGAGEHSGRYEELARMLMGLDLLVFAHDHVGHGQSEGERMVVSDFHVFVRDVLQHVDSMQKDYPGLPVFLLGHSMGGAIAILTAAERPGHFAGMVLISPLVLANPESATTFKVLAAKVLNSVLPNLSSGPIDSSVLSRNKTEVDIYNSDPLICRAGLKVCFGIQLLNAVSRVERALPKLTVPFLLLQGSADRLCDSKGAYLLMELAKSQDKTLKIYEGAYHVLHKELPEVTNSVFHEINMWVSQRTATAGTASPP

Molecule `CCC(F)(F)C(=O)C[S+]([O-])c1ccc(C(=O)N2CCN(c3cccc(Cl)c3)[C@@H](C)[C@@H]2C)cc1Cl` (mixture of isomers) [compound 3, LEI-515] has an inhibition at 10 µM [1] of -10.5%, an inhibition at 10 µM [2] of 8.1% and an inhibition at 10 µM [3] of 22.3%. The inhibition at 10 µM [4] was 3.5%, the inhibition at 10 µM [5] was 19.5% and the inhibition at 10 µM [6] was 20.4%. The inhibition at 10 µM [7] was -11.9%, the inhibition at 10 µM [8] was -19.9% and the inhibition at 10 µM [9] was -29.5%. For the same molecule, the inhibition at 1 µM [10] was 21.7%, the inhibition at 10 µM [10] was 59.5% and the inhibition at 10 µM [11] was 24.2%. For the same molecule, the inhibition at 10 µM [12] was 9.9%, the inhibition at 10 µM [13] was -7% and the inhibition at 10 µM [14] was 48.3%. It also gave an inhibition at 10 µM [15] of 2.2%, an inhibition at 10 µM [16] of 10.6% and an inhibition at 10 µM [17] of -26%. It also gave an inhibition at 10 µM [18] of 27.6%, an inhibition at 10 µM [19] of -8.1% and an inhibition at 10 µM [20] of -4.2%. For the same molecule, the inhibition at 10 µM [21] was -8%, the inhibition at 10 µM [22] was 6.6% and the “X-ray co-crystal structure (crystal soaking), 1.55 Å” value [23] was “LEI-515 was covalently attached to the catalytic Ser122 residue through its electrophilic carbonyl group as a deprotonated hemiketal”.

Reference: paper PMC10698032, “A monoacylglycerol lipase inhibitor showing therapeutic efficacy in mice without central side effects or dependence” (Nature Communications, 2023)
